Measured values: patent publication US10689377B2 (Mirati Therapeutics, Inc., priority 2017, dated 2020)
Where a name gives a salt, the structure may show the parent alone.

Molecular target: KRas G12C (Homo sapiens, UniProt P01116, G12C)
Test: Cellular inhibition of KRas G12C measured by Phospho-ERK in NCI-H358 cells
Format: cell-based
Details: pERK(Thr202/Tyr204) normalized with GAPDH, NCI-H358 cells, 3 hours; read-out: IC50
Summary of the method: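 Readout is pERK(Thr202/Tyr204) immunofluorescence normalized to GAPDH, expressed as percent of DMSO control and fitted with a 4-parameter curve for IC50. Attached NCI-H358 cells received compound for 3 hours in 0.5% DMSO, followed by fixation and methanol permeabilization.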

Chain of KRas G12C (P01116 1-188 isoform P01116-2 G12C): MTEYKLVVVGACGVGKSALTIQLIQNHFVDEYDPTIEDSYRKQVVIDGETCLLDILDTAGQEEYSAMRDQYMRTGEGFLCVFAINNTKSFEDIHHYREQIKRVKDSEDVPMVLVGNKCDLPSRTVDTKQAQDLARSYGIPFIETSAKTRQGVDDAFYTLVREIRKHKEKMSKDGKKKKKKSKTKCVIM

SMILES	IC50
C=CC(=O)N1CCN(c2nc(OC[C@H]3CN(C)CCO3)nc3c2CCN(c2cccc4ccccc24)C3)CC1CC#N (stereo partly drawn) [Example 270, 2-(1-acryloyl-4-(2-(((R)-4-methylmorpholin-2-yl)methoxy)-7-(naphthalen-1-yl)-5,6,7,8-tetrahydropyrido[3,4-d]pyrimidin-4-yl)piperazin-2-yl)acetonitrile]	0.0001 to 1 µM
C=CC(=O)N1CCN(c2ncnc3c2CCN(c2c(O)cccc2F)C3)CC1 [Example 4, 1-(4-(7-(2-fluoro-6-hydroxyphenyl)-5,6,7,8-tetrahydropyrido[3,4-d]pyrimidin-4-yl)piperazin-1-yl)prop-2-en-1-one]	> 1 µM
C=CC(=O)N1CCN(c2nc(O[C@H](C)CN(C)C)nc3c2CCN(c2cccc4ccccc24)C3)CC1CC#N (stereo partly drawn) [Example 151, 2-(1-acryloyl-4-(2-(((R)-1-(dimethylamino)propan-2-yl)oxy)-7-(naphthalen-1-yl)-5,6,7,8-tetrahydropyrido[3,4-d]pyrimidin-4-yl)piperazin-2-yl)acetonitrile]	> 1 µM
C=CC(=O)N1CCN(c2nc(OCCCN3CCOCC3)nc3c2CCN(c2cc(O)cc(C4CC4)c2)C3)CC1 [Example 41, 1-(4-(7-(3-cyclopropyl-5-hydroxyphenyl)-2-(3-morpholinopropoxy)-5,6,7,8-tetrahydropyrido[3,4-d]pyrimidin-4-yl)piperazin-1-yl)prop-2-en-1-one trifluoroacetate]	> 1 µM
C=CC(=O)N1CCN(c2nc(OC[C@@H]3CCCN3C)nc3c2CCN(c2cnccc2C#N)C3)C[C@@H]1CC#N [Example 305, 3-(4-((S)-4-acryloyl-3-(cyanomethyl)piperazin-1-yl)-2-(((S)-1-methylpyrrolidin-2-yl)methoxy)-5,6-dihydropyrido[3,4-d]pyrimidin-7(8H)-yl)isonicotinonitrile]	> 1 µM
C=CC(=O)N1CCN(c2nc(OC[C@@H]3C[C@@H](O)CN3C)nc3c2CCN(c2cccc(Cl)c2C(F)(F)F)C3)C[C@@H]1CC#N [Example 426, 2-((S)-1-acryloyl-4-(7-(3-chloro-2-(trifluoromethyl)phenyl)-2-(((2S,4R)-4-hydroxy-1-methylpyrrolidin-2-yl)methoxy)-5,6,7,8-tetrahydropyrido[3,4-d]pyrimidin-4-yl)piperazin-2-yl)acetonitrile]	0.0001 to 1 µM
C=CC(=O)N1CCN(c2nc(OC[C@]3(C)CCCN3C)nc3c2CCN(c2cccc4ccccc24)C3)CC1CC#N (stereo partly drawn) [Example 395, 2-(1-acryloyl-4-(2-(((S)-1,2-dimethylpyrrolidin-2-yl)methoxy)-7-(naphthalen-1-yl)-5,6,7,8-tetrahydropyrido[3,4-d]pyrimidin-4-yl)piperazin-2-yl)acetonitrile]	0.0001 to 1 µM
C=CC(=O)N1CCN(c2nc(O[C@@H](C)[C@@H]3CCCN3C)nc3c2CCN(c2cc(O)cc4ccccc24)C3)CC1 [Example 130, 1-(4-(7-(3-hydroxynaphthalen-1-yl)-2-((S)-1-((S)-1-methylpyrrolidin-2-yl)ethoxy)-5,6,7,8-tetrahydropyrido[3,4-d]pyrimidin-4-yl)piperazin-1-yl)prop-2-en-1-one]	0.0001 to 1 µM
C=CC(=O)N1CCN(c2nc(N3CC(N(C)C)C3)nc3c2CCN(c2cc(O)cc4ccccc24)C3)CC1 [Example 128, 1-(4-(2-(3-(dimethylamino)azetidin-1-yl)-7-(3-hydroxynaphthalen-1-yl)-5,6,7,8-tetrahydropyrido[3,4-d]pyrimidin-4-yl)piperazin-1-yl)prop-2-en-1-one]	> 1 µM
C=CC(=O)N1CCN(c2nc(OC(C)CNC)nc3c2CCN(c2cc(O)cc4ccccc24)C3)CC1 (centres unmarked) [Example 70, 1-(4-(7-(3-hydroxynaphthalen-1-yl)-2-((1-(methylamino)propan-2-yl)oxy)-5,6,7,8-tetrahydropyrido[3,4-d]pyrimidin-4-yl)piperazin-1-yl)prop-2-en-1-one]	> 1 µM
C=CC(=O)N1CCN(c2nc(OC[C@@H]3CCCN3C)nc3c2CCN(c2ccnc4ccccc24)C3)CC1CC#N (stereo partly drawn) [Example 278, 2-(1-acryloyl-4-(2-(((S)-1-methylpyrrolidin-2-yl)methoxy)-7-(quinolin-4-yl)-5,6,7,8-tetrahydropyrido[3,4-d]pyrimidin-4-yl)piperazin-2-yl)acetonitrile]	0.0001 to 1 µM
C=CC(=O)N1CCN(c2nc(OC[C@@H]3CCCN3C)nc3c2CCN(c2cccc(OC)c2C)C3)C[C@@H]1CC#N [Example 324, 2-[(2S)-4-[7-(3-methoxy-2-methyl-phenyl)-2-[[(2S)-1-methylpyrrolidin-2-yl]methoxy]-6,8-dihydro-5H-pyrido[3,4-d]pyrimidin-4-yl]-1-prop-2-enoyl-piperazin-2-yl]acetonitrile]	0.0001 to 1 µM
C=CC(=O)N1CCN(c2nc(OCCN(C)C)nc3c2CCN(c2cc(O)cc4ccccc24)C3)C[C@H]1C [Example 15, (R)-1-(4-(2-(2-(dimethylamino)ethoxy)-7-(3-hydroxynaphthalen-1-yl)-5,6,7,8-tetrahydropyrido[3,4-d]pyrimidin-4-yl)-2-methylpiperazin-1-yl)prop-2-en-1-one]	> 1 µM

Continued, values first:

IC50	SMILES
> 1 µM	C=CC(=O)N1CCN(c2ncnc3c2CCN(c2c(C)ccc4[nH]ncc24)C3)CC1 [Example 7, 1-(4-(7-(5-methyl-1H-indazol-4-yl)-5,6,7,8-tetrahydropyrido[3,4-d]pyrimidin-4-yl)piperazin-1-yl)prop-2-en-1-one]
0.0001 to 1 µM	C=CC(=O)N1CCN(c2nc(OC[C@@H]3CCCN3C)nc3c2CCN(c2cncc(Cl)c2C)C3)C[C@@H]1CC#N [Example 387, 2-((S)-1-acryloyl-4-(7-(5-chloro-4-methylpyridin-3-yl)-2-(((S)-1-methylpyrrolidin-2-yl)methoxy)-5,6,7,8-tetrahydropyrido[3,4-d]pyrimidin-4-yl)piperazin-2-yl)acetonitrile]
> 1 µM	C=CC(=O)N1CCN(c2nc(OC[C@@H]3C[C@@H](F)CN3C)nc3c2CCN(c2cc(OC)cc4ccccc24)C3)CC1 [Example 355, 1-[4-[2-[[(2S,4R)-4-fluoro-1-methyl-pyrrolidin-2-yl]methoxy]-7-(3-methoxy-1-naphthyl)-6,8-dihydro-5H-pyrido[3,4-d]pyrimidin-4-yl]piperazin-1-yl]prop-2-en-1-one]
0.0001 to 1 µM	C=CC(=O)N1CCN(c2nc(OC[C@@H]3CCCN3C)nc3c2CCN(c2cccc(C)c2C)C3)CC1CC#N (stereo partly drawn) [Example 228, 2-(1-acryloyl-4-(7-(2,3-dimethylphenyl)-2-(((S)-1-methylpyrrolidin-2-yl)methoxy)-5,6,7,8-tetrahydropyrido[3,4-d]pyrimidin-4-yl)piperazin-2-yl)acetonitrile]
0.0001 to 1 µM	C=CC(=O)N1CCN(c2nc(OC[C@@H]3CCCN3C)nc3c2CCN(c2cc(O)cc4ccccc24)C3)C[C@@H]1CC#N [Example 317]
0.0001 to 1 µM	C=CC(=O)N1CCN(c2nc(OC[C@@H]3CCCN3C)nc3c2CCN(c2c(F)ccc4ccccc24)C3)CC1CC#N (stereo partly drawn) [Example 311, 2-(1-acryloyl-4-(7-(2-fluoronaphthalen-1-yl)-2-(((S)-1-methylpyrrolidin-2-yl)methoxy)-5,6,7,8-tetrahydropyrido[3,4-d]pyrimidin-4-yl)piperazin-2-yl)acetonitrile]
> 1 µM	C=CC(=O)N1CCN(c2nc(OC[C@@H]3CCCN3C)nc3c2CCN(c2ccccc2C(F)(F)F)C3)CC1 [Example 159, (S)-1-(4-(2-((1-methylpyrrolidin-2-yl)methoxy)-7-(2-(trifluoromethyl)phenyl)-5,6,7,8-tetrahydropyrido[3,4-d]pyrimidin-4-yl)piperazin-1-yl)prop-2-en-1-one]
0.0001 to 1 µM	C=CC(=O)N1CCN(c2nc(OC[C@@H]3C[C@@H](O)CN3C)nc3c2CCN(c2cccc4ccccc24)C3)CC1CC#N (stereo partly drawn) [Example 218, 2-(1-acryloyl-4-(2-(((2S,4R)-4-hydroxy-1-methylpyrrolidin-2-yl)methoxy)-7-(naphthalen-1-yl)-5,6,7,8-tetrahydropyrido[3,4-d]pyrimidin-4-yl)piperazin-2-yl)acetonitrile]
> 1 µM	C=CC(=O)N1CCN(c2nc(N3CCC(N(C)C)CC3)nc3c2CCN(c2cc(O)cc4ccccc24)C3)CC1 [Example 17, 1-(4-(2-(4-(dimethylamino)piperidin-1-yl)-7-(3-hydroxynaphthalen-1-yl)-5,6,7,8-tetrahydropyrido[3,4-d]pyrimidin-4-yl)piperazin-1-yl)prop-2-en-1-one]
0.0001 to 1 µM	C=CC(=O)N1CCN(c2nc(OCC3CCN(C)C3)nc3c2CCN(c2cc(O)cc4ccccc24)C3)CC1 (centres unmarked) [Example 89, 1-(4-(7-(3-hydroxynaphthalen-1-yl)-2-((1-methylpyrrolidin-3-yl)methoxy)-5,6,7,8-tetrahydropyrido[3,4-d]pyrimidin-4-yl)piperazin-1-yl)prop-2-en-1-one]
> 1 µM	C=CC(=O)N1[C@H](C)CN(c2nc(OCCCN3CCOCC3)nc3c2CCN(c2cc(O)cc4ccccc24)C3)C[C@@H]1C [Example 191, 1-((2S,6R)-4-(7-(3-hydroxynaphthalen-1-yl)-2-(3-morpholinopropoxy)-5,6,7,8-tetrahydropyrido[3,4-d]pyrimidin-4-yl)-2,6-dimethylpiperazin-1-yl)prop-2-en-1-one]
0.0001 to 1 µM	C#CC[C@H]1CN(c2nc(OC[C@@H]3CCCN3C)nc3c2CCN(c2cccc4ccccc24)C3)CCN1C(=O)C=C [Example 358, 1-[(2S)-4-[2-[[(2S)-1-methylpyrrolidin-2-yl]methoxy]-7-(1-naphthyl)-6,8-dihydro-5H-pyrido[3,4-d]pyrimidin-4-yl]-2-prop-2-ynyl-piperazin-1-yl]prop-2-en-1-one]
> 1 µM	C=CC(=O)N1CCN(c2nc(O[C@H](C)CN3CC[C@@H](OC)C3)nc3c2CCN(c2cc(O)cc4ccccc24)C3)CC1 [Example 63, 1-(4-(7-(3-hydroxynaphthalen-1-yl)-2-(((R)-1-((R)-3-methoxypyrrolidin-1-yl)propan-2-yl)oxy)-5,6,7,8-tetrahydropyrido[3,4-d]pyrimidin-4-yl)piperazin-1-yl)prop-2-en-1-one]
